Laboratory results as given in PubChem BioAssay AID1919016 (Molecular Pharmacology Branch, DTP, NCI, 2023).
pIC50: −log10 of the molar value.

Test system: NCI-H196 complex spheroid growth, percent test/control
Test: Anticancer human tumor NCI-H196 cell line growth inhibition [AhR];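 note: seven days of drug exposure starting three days after plating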;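 for viability, T/C: 100% = DMSO vehicle control wells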
Settings: for pIC50: curve of first compound; for viability, T/C: stronger effect = lower value
Outline: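 Spheroids combined tumor cells with HUVEC endothelial cells and human MSCs as stroma. AhR antagonists were paired with standard or investigational drugs, each dosed in half-log steps down from near clinical Cmax, or from 10 microM where Cmax was unknown.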

With `CC(C)c1c(-c2ccccc2)nc2c(C#N)c[nH]n2c1=O` + Cc1cncc(-c2nc(NCCc3c[nH]c4ccccc34)c3ncn(C(C)C)c3n2)c1 the pIC50 (second compound 0.1 µM) was < 5.00, the pIC50 (second compound 0.316 µM) was < 5.00 and the pIC50 (second compound 1 µM) was < 5.00. For the same compound, the pIC50 (second compound 3.16 µM) was < 5.00, the pIC50 (second compound 10 µM) was < 5.00 and the viability, T/C (second compound 0.1 µM, first compound 0.0316 µM) was 107%. The viability, T/C (second compound 0.1 µM, first compound 0.1 µM) was 110%, the viability, T/C (second compound 0.1 µM, first compound 0.316 µM) was 105% and the viability, T/C (second compound 0.1 µM, first compound 1 µM) was 100%. For the same compound, the viability, T/C (second compound 0.1 µM, first compound 3.16 µM) was 117%, the viability, T/C (second compound 0.1 µM, first compound 10 µM) was 106% and the viability, T/C (second compound 0.316 µM, first compound 0.0316 µM) was 103%. The viability, T/C (second compound 0.316 µM, first compound 0.1 µM) was 120%, the viability, T/C (second compound 0.316 µM, first compound 0.316 µM) was 113% and the viability, T/C (second compound 0.316 µM, first compound 1 µM) was 109%. For the same compound, the viability, T/C (second compound 0.316 µM, first compound 3.16 µM) was 113%, the viability, T/C (second compound 0.316 µM, first compound 10 µM) was 107% and the viability, T/C (second compound 1 µM, first compound 0.0316 µM) was 120%. For the same compound, the viability, T/C (second compound 1 µM, first compound 0.1 µM) was 112%, the viability, T/C (second compound 1 µM, first compound 0.316 µM) was 115% and the viability, T/C (second compound 1 µM, first compound 1 µM) was 103%. It also gave a viability, T/C (second compound 1 µM, first compound 3.16 µM) of 112%, a viability, T/C (second compound 1 µM, first compound 10 µM) of 101% and a viability, T/C (second compound 3.16 µM, first compound 0.0316 µM) of 116%. The viability, T/C (second compound 3.16 µM, first compound 0.1 µM) was 117%, the viability, T/C (second compound 3.16 µM, first compound 0.316 µM) was 119% and the viability, T/C (second compound 3.16 µM, first compound 1 µM) was 102%. It also gave a viability, T/C (second compound 3.16 µM, first compound 3.16 µM) of 115%, a viability, T/C (second compound 3.16 µM, first compound 10 µM) of 112% and a viability, T/C (second compound 10 µM, first compound 0.0316 µM) of 75.9%. It also gave a viability, T/C (second compound 10 µM, first compound 0.1 µM) of 86.7%, a viability, T/C (second compound 10 µM, first compound 0.316 µM) of 89.5% and a viability, T/C (second compound 10 µM, first compound 1 µM) of 86.9%. For the same compound, the viability, T/C (second compound 10 µM, first compound 3.16 µM) was 80.7% and the viability, T/C (second compound 10 µM, first compound 10 µM) was 80.7%.
